Data taken from patent publication US20240148821A1, “PHARMACEUTICAL USE OF CYCLIC PEPTIDE COMPOUND” (CHUGAI SEIYAKU KABUSHIKI KAISHA, priority 2021, published 2024).
Numbered stars: 1 amine (or outer) side, 2 acyl side, 3 side chain; on linkers, the order of the positions; unused ones are H or OH. Bridge positions count the residues as written; N and C are the ends. Square brackets hold non-standard residues; d marks the D form. Peptide text beside a SMILES is read from it. * marks the point of attachment. hPhe(3,5-F2-4-CF3) = N[C@@H](CCc1cc(F)c(C(F)(F)F)c(F)c1)C(=O)O; hPhe(3-Cl-4-CF3) = N[C@@H](CCc1ccc(C(F)(F)F)c(Cl)c1)C(=O)O; hPhe(3-F,4-CF3) = N[C@@H](CCc1ccc(C(F)(F)F)c(F)c1)C(=O)O; NMePhe(4-CF3) = CN[C@@H](Cc1ccc(C(F)(F)F)cc1)C(=O)O; NMePhe(4-Cl) = CN[C@@H](Cc1ccc(Cl)cc1)C(=O)O; NMePhe(4-Me) = CN[C@@H](Cc1ccc(C)cc1)C(=O)O; NMedβ3hAla = C[C@H](CC(=O)[*:2])N(C)[*:1]; NMeGly(cPent) = CN[C@H](C(=O)O)C1CCCC1; NMeGly(cBu) = CN[C@H](C(=O)O)C1CCC1; NMeCha = CN[C@@H](CC1CCCCC1)C(=O)O; Hyp = O=C(O)[C@@H]1C[C@@H](O)CN1; NMeAhp(2) = CCCCC[C@H](NC)C(=O)O; NMeI = CC[C@H](C)[C@H](NC)C(=O)O; NMeD = CN[C@@H](CC(=O)O)C(=O)O; AllylGly = C=CC[C@H](N)C(=O)O; NMeL = CN[C@@H](CC(C)C)C(=O)O; Ala(CN) = N#CC[C@H](N)C(=O)O; Chg = N[C@H](C(=O)O)C1CCCCC1; NMeV = CN[C@H](C(=O)O)C(C)C; NPhGly = O=C(O)CNc1ccccc1; Morpholide = C1CN(*)CCO1; NMeA = CN[C@@H](C)C(=O)O; NMeAib = CNC(C)(C)C(=O)O; Piperidide = C1CCN(*)CC1; Ac5c = NC1(C(=O)O)CCCC1; Aze = O=C(O)[C@@H]1CCN1; Sar = CNCC(=O)O; OAll = C=CCO*

What was measured:
[1] = target: protein-protein interaction between Kras and SOS1 (biotin-tagged human Kras loaded with GDP, His-tagged human SOS1) (Homo sapiens (Human), UniProt P01116, G12D); assay: Protein-protein interaction inhibition between Kras and SOS1 (KrasG12D-SOS PPI) using AlphaScreen; type: biochemical; conditions: AlphaScreen; biotin-tagged human Kras loaded with GDP, His-tagged human SOS1; read-out: KRAS G12D-SOS PPI IC50;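 further: kras produced in E. coli, Ni-coupled donor beads and streptavidin acceptor beads, excitation 680 nm with emission detected at 520–620 nm via singlet oxygen transfer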
[2] = test system: Human pancreatic cancer cell line AsPC-1 (G12D mutation Kras); assay: AsPC-1 cell growth inhibition (AsPC-1 CGI); type: cell-based; conditions: read-out: AsPC-1 cell growth inhibition, 50% growth inhibitory concentration (IC50 value); 96 hours, CellTiter-Glo, values classified in ranges

## CC[C@H](C)[C@@H]1NC(=O)[C@H](C)N(C)C(=O)C[C@@H](C)N(C)C(=O)[C@H](C2CCC2)N(C)C(=O)C(C)(C)N(C)C(=O)CN(c2ccccc2)C(=O)[C@H](CCc2ccc(C(F)(F)F)c(Cl)c2)NC(=O)CN(C)C(=O)[C@H](CC2CCCCC2)N(C)C(=O)CN(C)C(=O)CN(C)C1=O [Compound 2145] (cyclo(I[Sar][Sar][NMeCha][Sar][hPhe(3-Cl-4-CF3)][NPhGly][NMeAib][NMeGly(cBu)][NMedβ3hAla][NMeA]))
[1]
  IC50: 22 nM
[2]
  IC50: > 500 nM

## CCCCC[C@H]1C(=O)N[C@@H]([C@@H](C)CC)C(=O)N[C@@H](C)C(=O)N2CC[C@H]2C(=O)N(C)[C@@H](Cc2ccc(C)cc2)C(=O)N(C)CC(=O)N[C@@H](CCc2ccc(C(F)(F)F)c(Cl)c2)C(=O)N2CCC[C@H]2C(=O)NC2(CCCC2)C(=O)N(C)[C@@H](C2CCCC2)C(=O)N(C)[C@H](C(=O)N(C)C)CC(=O)N1C [Compound 1059] ([NMeAhp(2)]IA[Aze][NMePhe(4-Me)][Sar][hPhe(3-Cl-4-CF3)]P[Ac5c][NMeGly(cPent)][NMeD]-NMe2; lactam N-11)
[1]
  IC50: 0.64 nM
[2]
  IC50: ≤ 20 nM

## C=CC[C@@H]1NC(=O)[C@H](CC(C)C)N(C)C(=O)C[C@@H](C(=O)N2CCCCC2)N(C)C(=O)[C@H](C(C)C)N(C)C(=O)C2(CCCC2)NC(=O)[C@@H]2CCCN2C(=O)[C@H](CCc2ccc(C(F)(F)F)c(Cl)c2)NC(=O)CN(C)C(=O)[C@H](CC2CCCCC2)N(C)C(=O)[C@@H]2CCN2C(=O)[C@H](C)N(C)C1=O [Compound 745] ([NMeL][AllylGly][NMeA][Aze][NMeCha][Sar][hPhe(3-Cl-4-CF3)]P[Ac5c][NMeV][NMeD]-Piperidide; lactam N-11)
[1]
  IC50: 29 nM
[2]
  IC50: > 500 nM

## C=CCOC(=O)C[C@H]1C(=O)NC2(CCCC2)C(=O)N(C)[C@@H](C(C)C)C(=O)N(C)[C@H](C(=O)N2CCCCC2)CC(=O)N(C)[C@@H](C)C(=O)N[C@@H]([C@@H](C)CC)C(=O)N(C)CC(=O)N(C)CC(=O)N(C)[C@@H](CC2CCCCC2)C(=O)N(C)CC(=O)N[C@@H](CCc2ccc(C(F)(F)F)c(Cl)c2)C(=O)N1C [Compound 792] ([NMeA]I[Sar][Sar][NMeCha][Sar][hPhe(3-Cl-4-CF3)][NMeD](OAll)[Ac5c][NMeV][NMeD]-Piperidide; lactam N-11)
[1]
  IC50: 3.5 nM
[2]
  IC50: > 500 nM

## CC[C@H](C)[C@@H]1NC(=O)[C@H](CC(C)C)N(C)C(=O)C[C@@H](C(=O)N2CCOCC2)N(C)C(=O)[C@H](C2CCCC2)N(C)C(=O)C2(CCCC2)NC(=O)[C@@H]2CCCN2C(=O)[C@H](CCc2ccc(C(F)(F)F)c(F)c2)NC(=O)CN(C)C(=O)[C@H](Cc2ccc(C)cc2)N(C)C(=O)[C@@H]2CCN2C(=O)[C@H](C)N(C)C1=O [Compound 938] ([NMeL]I[NMeA][Aze][NMePhe(4-Me)][Sar][hPhe(3-F,4-CF3)]P[Ac5c][NMeGly(cPent)][NMeD]-Morpholide; lactam N-11)
[1]
  IC50: 0.69 nM
[2]
  IC50: ≤ 20 nM

## CC(C)C[C@@H]1NC(=O)C(C)(C)N(C)C(=O)[C@H](CC(C)C)NC(=O)[C@H](CCc2ccc(C(F)(F)F)c(F)c2)NC(=O)CN(C)C(=O)[C@H](Cc2ccc(Cl)cc2)N(C)C(=O)CN(C)C(=O)CN(C)C(=O)[C@H](C2CCCCC2)NC(=O)[C@H](CC(C)C)N(C)C(=O)C[C@@H](C)N(C)C1=O [Compound 1133] (cyclo([Chg][Sar][Sar][NMePhe(4-Cl)][Sar][hPhe(3-F,4-CF3)]L[NMeAib]L[NMedβ3hAla][NMeL]))
[1]
  IC50: 56 nM
[2]
  IC50: > 500 nM

## CC[C@H](C)[C@@H]1NC(=O)[C@H](CC(C)C)N(C)C(=O)C[C@@H](C)N(C)C(=O)[C@H](C2CCCC2)N(C)C(=O)C2(CCCC2)NC(=O)[C@@H]2CCCN2C(=O)[C@H](CCc2cc(F)c(C(F)(F)F)c(F)c2)NC(=O)CN(C)C(=O)[C@H](Cc2ccc(C(F)(F)F)cc2)N(C)C(=O)[C@@H]2CCN2C(=O)[C@H](C)N(C)C1=O [Compound 371] (cyclo([Ac5c][NMeGly(cPent)][NMedβ3hAla][NMeL]I[NMeA][Aze][NMePhe(4-CF3)][Sar][hPhe(3,5-F2-4-CF3)]P))
[1]
  IC50: 1.3 nM
[2]
  IC50: ≤ 20 nM

## CC(C)C[C@H]1C(=O)N[C@@H](CC#N)C(=O)N(C)[C@@H](C)C(=O)N2CC[C@H]2C(=O)N(C)[C@@H](CC2CCCCC2)C(=O)N(C)CC(=O)N[C@@H](CCc2ccc(C(F)(F)F)c(Cl)c2)C(=O)N2CCC[C@H]2C(=O)NC2(CCCC2)C(=O)N(C)[C@@H](C(C)C)C(=O)N(C)[C@H](C(=O)N2CCCCC2)CC(=O)N1C [Compound 278] ([NMeL][Ala(CN)][NMeA][Aze][NMeCha][Sar][hPhe(3-Cl-4-CF3)]P[Ac5c][NMeV][NMeD]-Piperidide; lactam N-11)
[1]
  IC50: 25 nM
[2]
  IC50: > 500 nM

## CCO[C@@H]1C[C@H]2C(=O)NC3(CCCC3)C(=O)N(C)[C@@H]([C@@H](C)CC)C(=O)N(C)[C@H](C)CC(=O)N(C)[C@@H](CC(C)C)C(=O)N[C@@H]([C@@H](C)CC)C(=O)N(C)[C@@H](C)C(=O)N3CC[C@H]3C(=O)N(C)[C@@H](Cc3ccc(C(F)(F)F)cc3)C(=O)N(C)CC(=O)N[C@@H](CCc3cc(F)c(C(F)(F)F)c(F)c3)C(=O)N2C1 [Compound 362] (cyclo([Ac5c][NMeI][NMedβ3hAla][NMeL]I[NMeA][Aze][NMePhe(4-CF3)][Sar][hPhe(3,5-F2-4-CF3)][Hyp](Et)))
[1]
  IC50: 0.66 nM
[2]
  IC50: ≤ 20 nM
